{
  "source": "ChEMBL document CHEMBL4680149",
  "about": "“Biological evaluation and chemoproteomics reveal potential antibacterial targets of a cajaninstilbene-acid analogue” (Eur J Med Chem, 2020)",
  "key": {"Cell membrane [1]": {"tested_on": "Cell membrane", "assay": "Induction of cell membrane disruption in methicillin resistant Staphylococcus aureus ATCC 43300 assessed as loose cell wall at 4 ug/ml incubated for 1 hr by transmission electron microscopic analysis", "conditions": "dose 4.0 µg/ml"}, "Cell membrane [2]": {"tested_on": "Cell membrane", "assay": "Induction of cell membrane disruption in methicillin resistant Staphylococcus aureus ATCC 43300 at 4 ug/ml incubated for 1 hr by transmission electron microscopic analysis", "type": "subcellular", "conditions": "dose 4.0 µg/ml"}, "Cell membrane [3]": {"tested_on": "Cell membrane", "assay": "Induction of cell membrane permeabilization in Staphylococcus aureus ATCC 25923 assessed as increase in nucleic acid leakage by measuring increase in absorbance at 0.5 to 2X MIC measured every 30 mins for 5 hrs by spectrophotometry", "type": "subcellular"}, "RAW264.7": {"tested_on": "RAW264.7", "assay": "Cytotoxicity against mouse RAW264.7 cells assessed as reduction in cell viability incubated for 48 hrs by MTT assay", "type": "cell-based", "conditions": "RAW264.7, 48 h"}, "Staphylococcus aureus [4]": {"tested_on": "Staphylococcus aureus", "assay": "Antibacterial activity against methicillin resistant Staphylococcus aureus ATCC 43300 persisters assessed as eradication of colony formation at 24 to 40 ug/ml incubated for 6 hrs by colony counting method", "type": "functional, organism-based", "conditions": "dose 24-40 µg/ml"}, "Staphylococcus aureus [5]": {"tested_on": "Staphylococcus aureus", "assay": "Resistance index, ratio of MIC for antibacterial activity against Staphylococcus aureus ATCC 25923 measured after 60 days of serial passage to MIC for antibacterial activity against Staphylococcus aureus ATCC25923 measured after 16 hrs", "type": "functional"}, "Staphylococcus aureus [6]": {"tested_on": "Staphylococcus aureus", "assay": "Bacteriostatic activity against Staphylococcus aureus ATCC 25923 assessed as reduction in bacterial growth at 4 ug/ml incubated for 2 hrs by colony counting method", "type": "functional, organism-based", "conditions": "dose 4.0 µg/ml"}, "Staphylococcus aureus [7]": {"tested_on": "Staphylococcus aureus", "assay": "Bactericidal activity against Staphylococcus aureus ATCC 25923 assessed as reduction in bacterial colony formation at 2X MIC incubated for 2 hrs by colony counting method", "type": "functional, organism-based"}, "Cell membrane [8]": {"tested_on": "Cell membrane", "assay": "Induction of cell membrane disruption in Staphylococcus aureus ATCC 25923 at 4 ug/ml incubated for 1 hr by transmission electron microscopic analysis", "type": "subcellular", "conditions": "dose 4.0 µg/ml"}, "Cell membrane [9]": {"tested_on": "Cell membrane", "assay": "Induction of cell membrane disruption in Staphylococcus aureus ATCC 25923 assessed as loose cell wall at 4 ug/ml incubated for 1 hr by transmission electron microscopic analysis", "conditions": "dose 4.0 µg/ml"}, "Cell membrane [10]": {"tested_on": "Cell membrane", "assay": "Induction of cell membrane permeabilization in methicillin resistant Staphylococcus aureus ATCC 43300 assessed as increase in nucleic acid leakage by measuring increase in absorbance at 0.5 to 2X MIC measured every 30 mins for 5 hrs by spectrophotometry", "type": "subcellular"}, "Cell membrane [11]": {"tested_on": "Cell membrane", "assay": "Induction of cell membrane depolarization in Staphylococcus aureus ATCC 25923 assessed as reduction in fluorescence intensity at 0.5 to 1 times MIC measured upto 90 mins by DiOC5 dye based flow cytometric analysis", "type": "subcellular", "conditions": "time min <=90"}, "Lipid bilayer": {"tested_on": "Lipid bilayer", "assay": "Induction of pore formation in DOPC/DOPG large unilamellar vesicles assessed as calcein leakage at 0.5 to 2 times MIC measured for 30 mins by fluorescence based assay"}, "Staphylococcus aureus [12]": {"tested_on": "Staphylococcus aureus", "assay": "Bacteriostatic activity against Staphylococcus aureus ATCC 25923 assessed as reduction in bacterial growth at 4 ug/ml incubated for 16 hrs by Kirby-Bauer test method", "type": "functional, organism-based", "conditions": "dose 4.0 µg/ml"}, "Staphylococcus aureus [13]": {"tested_on": "Staphylococcus aureus", "assay": "Binding affinity to His-tagged recombinant Staphylococcus aureus PgsA expressed in Escherichia coli Rosetta DE3 at 5 uM incubated for 1 hr followed by UV irradiation for 20 mins by in-gel fluorescence scanning analysis", "conditions": "time 80.0 min"}, "Staphylococcus aureus [14]": {"tested_on": "Staphylococcus aureus", "assay": "Inhibition of PG biosynthesis in Staphylococcus aureus assessed as fold change in PlsX gene expression at 4 ug/ml incubated for 1 hr by qRT-PCR analysis relative to control", "type": "functional", "conditions": "dose 4.0 µg/ml"}, "Staphylococcus aureus [15]": {"tested_on": "Staphylococcus aureus", "assay": "Inhibition of PG biosynthesis in Staphylococcus aureus assessed as fold change in PlsY gene expression at 4 ug/ml incubated for 1 hr by qRT-PCR analysis relative to control", "type": "functional", "conditions": "dose 4.0 µg/ml"}, "Staphylococcus aureus [16]": {"tested_on": "Staphylococcus aureus", "assay": "Inhibition of PG biosynthesis in Staphylococcus aureus assessed as fold change in PlsC gene expression at 4 ug/ml incubated for 1 hr by qRT-PCR analysis relative to control", "type": "functional", "conditions": "dose 4.0 µg/ml"}, "Staphylococcus aureus [17]": {"tested_on": "Staphylococcus aureus", "assay": "Inhibition of PG biosynthesis in Staphylococcus aureus assessed as fold change in CdsA gene expression at 4 ug/ml incubated for 1 hr by qRT-PCR analysis relative to control", "type": "functional", "conditions": "dose 4.0 µg/ml"}, "Staphylococcus aureus [18]": {"tested_on": "Staphylococcus aureus", "assay": "Inhibition of PG biosynthesis in Staphylococcus aureus assessed as fold change in LtaS gene expression at 4 ug/ml incubated for 1 hr by qRT-PCR analysis relative to control", "type": "functional", "conditions": "dose 4.0 µg/ml"}, "Staphylococcus aureus [19]": {"tested_on": "Staphylococcus aureus", "assay": "Inhibition of PG biosynthesis in Staphylococcus aureus assessed as fold change in Cls gene expression at 4 ug/ml incubated for 1 hr by qRT-PCR analysis relative to control", "type": "functional", "conditions": "dose 4.0 µg/ml"}, "Staphylococcus aureus [20]": {"tested_on": "Staphylococcus aureus", "assay": "Inhibition of PG biosynthesis in Staphylococcus aureus assessed as fold change in MprF gene expression at 4 ug/ml incubated for 1 hr by qRT-PCR analysis relative to control", "type": "functional", "conditions": "dose 4.0 µg/ml"}, "Staphylococcus aureus [21]": {"tested_on": "Staphylococcus aureus", "assay": "Inhibition of PG biosynthesis in Staphylococcus aureus assessed as fold change in YpfP gene expression at 4 ug/ml incubated for 1 hr by qRT-PCR analysis relative to control", "type": "functional", "conditions": "dose 4.0 µg/ml"}, "Staphylococcus aureus [22]": {"tested_on": "Staphylococcus aureus", "assay": "Inhibition of PG biosynthesis in Staphylococcus aureus assessed as fold change in DgkB gene expression at 4 ug/ml incubated for 1 hr by qRT-PCR analysis relative to control", "type": "functional", "conditions": "dose 4.0 µg/ml"}, "Staphylococcus aureus [23]": {"tested_on": "Staphylococcus aureus", "assay": "Antibacterial activity against methicillin resistant Staphylococcus aureus ATCC 43300 persisters assessed as reduction in number of living bacteria at 24 to 40 ug/ml measured over 24 hrs by colony counting method", "type": "functional, organism-based", "conditions": "dose 24-40 µg/ml"}, "Staphylococcus aureus [24]": {"tested_on": "Staphylococcus aureus", "assay": "Antibacterial activity against Staphylococcus aureus ATCC 25923 assessed as reduction in bacterial growth incubated for 16 hrs by broth microdilution method", "type": "functional"}, "Staphylococcus aureus [25]": {"tested_on": "Staphylococcus aureus", "assay": "Antibacterial activity against Staphylococcus aureus ATCC 25923 assessed as reduction in bacterial growth measured after 60 days of serial passage", "type": "functional", "conditions": "ATCC 25923, 1440 h, time 60 day"}, "Staphylococcus aureus [26]": {"tested_on": "Staphylococcus aureus", "assay": "Bactericidal activity against in Staphylococcus aureus ATCC 25923 assessed as induction of bacterial death by measuring reduction in fluorescence intensity at 4 times MIC measured upto 90 mins by DiOC5 dye based flow cytometric analysis", "type": "functional, organism-based", "conditions": "time min <=90"}},
  "note": "pIC50: −log10 of the molar value. Activity calls are given as the source filed them. No cut-off for these calls is given here.",
  "data": [
    {"smiles": "COc1cc(/C=C/c2ccccc2F)c(C(=O)O)c(O)c1CC=C(C)C", "values": [
      {"measurement": "Activity", "setting": "Cell membrane [1]", "value": "Active"},
      {"measurement": "Activity", "setting": "Cell membrane [2]", "value": "Active"},
      {"measurement": "Activity", "setting": "Cell membrane [3]", "value": "Active"},
      {"measurement": "pIC50", "setting": "RAW264.7", "value": 4.20},
      {"measurement": "Activity", "setting": "Staphylococcus aureus [4]", "value": "Active"},
      {"measurement": "Ratio", "setting": "Staphylococcus aureus [5]", "value": 3},
      {"measurement": "Activity", "setting": "Staphylococcus aureus [6]", "value": "Active"},
      {"measurement": "Activity", "setting": "Staphylococcus aureus [7]", "value": "Active"},
      {"measurement": "Activity", "setting": "Cell membrane [8]", "value": "Active"},
      {"measurement": "Activity", "setting": "Cell membrane [9]", "value": "Active"},
      {"measurement": "Activity", "setting": "Cell membrane [10]", "value": "Active"},
      {"measurement": "Activity", "setting": "Cell membrane [11]", "value": "Active"},
      {"measurement": "Activity", "setting": "Lipid bilayer", "value": "inactive"},
      {"measurement": "Activity", "setting": "Staphylococcus aureus [12]", "value": "Active"},
      {"measurement": "Activity", "setting": "Staphylococcus aureus [13]", "value": "Active"},
      {"measurement": "fold change (FC)", "setting": "Staphylococcus aureus [14]", "value": 0.577},
      {"measurement": "fold change (FC)", "setting": "Staphylococcus aureus [15]", "value": 1.58},
      {"measurement": "fold change (FC)", "setting": "Staphylococcus aureus [16]", "value": 1.99},
      {"measurement": "fold change (FC)", "setting": "Staphylococcus aureus [17]", "value": 1.18},
      {"measurement": "fold change (FC)", "setting": "Staphylococcus aureus [18]", "value": 0.663},
      {"measurement": "fold change (FC)", "setting": "Staphylococcus aureus [19]", "value": 0.558},
      {"measurement": "fold change (FC)", "setting": "Staphylococcus aureus [20]", "value": 0.759},
      {"measurement": "fold change (FC)", "setting": "Staphylococcus aureus [21]", "value": 0.446},
      {"measurement": "fold change (FC)", "setting": "Staphylococcus aureus [22]", "value": 1.25},
      {"measurement": "Activity", "setting": "Staphylococcus aureus [23]", "value": "Active"},
      {"measurement": "MIC", "setting": "Staphylococcus aureus [24]", "value": 4, "unit": "µg/mL"},
      {"measurement": "MIC", "setting": "Staphylococcus aureus [25]", "value": 12, "unit": "µg/mL"},
      {"measurement": "Activity", "setting": "Staphylococcus aureus [26]", "value": "Active"}
    ]}
  ]
}
